Values of other authors, collected in US20070212498A1, “Optical film, antireflection film, polarizing plate, display apparatus and method for manufacturing optical film” (FUJIFILM Corporation, priority 2006, published 2007).

Details: pKa of the conjugate acid, values in an aqueous solution (Kagaku Binran Kiso Hen)

Structure (SMILES): CCC1CNCCO1 (centres unmarked) [b-13, 2-Ethyl morpholine]
- pKa: 7.7

Structure (SMILES): CC1CNCCO1 (centres unmarked) [b-14, 2-Methyl morpholine]
- pKa: 7.8
